Experimental data: ChEMBL document CHEMBL1201862, “PubChem BioAssay data set” (2004)
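Test compounds were applied to cells in 96-well plates for 48 hours at 5 doses. The concentration for 50% growth inhibition is given as GI50.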 Activity calls are given as the source filed them. Rule as the data show it: active = GI50 up to about 1.1 µM and inactive = higher.

What was measured:
Assay in all cases: DTP human tumour cell line panel, 48 h
OVCAR-4 = test system: OVCAR-4
EKVX = test system: EKVX
DU-145 = test system: DU-145
MCF7 = test system: MCF7
NCI-H460 = test system: NCI-H460
A498 = test system: A498
SF-268 = test system: SF-268
PC-3 = test system: PC-3
SNB-75 = test system: SNB-75
SNB-19 = test system: SNB-19
MDA-N = test system: MDA-N
KM12 = test system: KM12
RXF 393 = test system: RXF 393
NCI/ADR-RES = test system: NCI/ADR-RES
Hs-578T = test system: Hs-578T
NCI-H226 = test system: NCI-H226
HCC 2998 = test system: HCC 2998
CAKI-1 = test system: CAKI-1
LOX IMVI = test system: LOX IMVI
MDA-MB-231 = test system: MDA-MB-231

Measured: GI50

C[N+](C)(C)c1ncnc2c1ncn2C1CCCO1 (stereo not drawn)
inactive: OVCAR-4 > 100 µM | EKVX > 100 µM | DU-145 > 100 µM | MCF7 > 100 µM | NCI-H460 > 100 µM | A498 > 100 µM | SF-268 > 100 µM | PC-3 > 100 µM | SNB-75 84.9 µM | SNB-19 > 100 µM | MDA-N > 100 µM | KM12 > 100 µM | RXF 393 > 100 µM | NCI/ADR-RES > 100 µM | Hs-578T > 100 µM | NCI-H226 > 100 µM | HCC 2998 > 100 µM

CCOC(=O)C(C)c1nc2cc3cccnc3c(Cl)c2[nH]c1=O (stereo not drawn)
inactive: OVCAR-4 > 100 µM | EKVX > 100 µM | CAKI-1 > 100 µM | DU-145 20 µM | MCF7 > 100 µM | NCI-H460 32.4 µM | A498 > 100 µM | SF-268 86.1 µM | PC-3 > 100 µM | LOX IMVI > 100 µM | SNB-75 > 100 µM | SNB-19 > 100 µM | KM12 > 100 µM | RXF 393 > 100 µM | MDA-MB-231 82 µM | NCI/ADR-RES > 100 µM | Hs-578T 54.1 µM | NCI-H226 > 100 µM | HCC 2998 85.3 µM

CCN1CN(c2ccccc2)C2(CCN(CC3COc4ccccc4O3)CC2)C1=O (stereo not drawn)
inactive: CAKI-1 43 µM | DU-145 36.6 µM | MCF7 26.1 µM | NCI-H460 18.2 µM | A498 22.6 µM | SF-268 42.5 µM | PC-3 25.3 µM | LOX IMVI 17.9 µM | SNB-75 30.2 µM | SNB-19 36.2 µM | MDA-N 2.28 µM | KM12 17.5 µM | RXF 393 15.5 µM | MDA-MB-231 2.57 µM | NCI/ADR-RES 37.2 µM | Hs-578T 20.7 µM | NCI-H226 24 µM

ClCCc1ccccc1CC1=NCCc2ccccc21
inactive: OVCAR-4 43.5 µM | EKVX 22.1 µM | CAKI-1 33 µM | DU-145 > 100 µM | MCF7 27.7 µM | NCI-H460 25.8 µM | A498 37.6 µM | SF-268 29 µM | PC-3 30.5 µM | LOX IMVI 76.7 µM | SNB-75 22 µM | SNB-19 18.1 µM | KM12 29.3 µM | RXF 393 21.7 µM | MDA-MB-231 38.1 µM | NCI/ADR-RES 21.9 µM | Hs-578T 28.5 µM | NCI-H226 22.5 µM | HCC 2998 25.1 µM

CC(=O)C(C(=O)c1ccc(C)cc1)[C@H]1OC(C)(C)O[C@H]1[C@H]1COC(C)(C)O1 (stereo partly drawn)
inactive: OVCAR-4 2.53 µM | EKVX 5.32 µM | CAKI-1 5.38 µM | MCF7 1.97 µM | NCI-H460 7.05 µM | A498 7.55 µM | SF-268 2.81 µM | PC-3 2.55 µM | LOX IMVI 2.06 µM | SNB-75 3.78 µM | SNB-19 9.95 µM | MDA-N 1.85 µM | KM12 8.75 µM | RXF 393 2.69 µM | MDA-MB-231 5.82 µM | NCI/ADR-RES 4.54 µM | Hs-578T 3.08 µM | NCI-H226 14.5 µM | HCC 2998 7.24 µM

COc1cccc(/C=C/c2cnc3ccccc3n2)c1OC
inactive: OVCAR-4 25.6 µM | EKVX 33 µM | CAKI-1 45.2 µM | DU-145 60.7 µM | MCF7 25.9 µM | NCI-H460 24.8 µM | A498 40.4 µM | SF-268 31.3 µM | PC-3 25.1 µM | LOX IMVI 36.6 µM | SNB-75 13.4 µM | MDA-N 61.1 µM | KM12 30.8 µM | RXF 393 21.8 µM | MDA-MB-231 22 µM | NCI/ADR-RES 18.5 µM | Hs-578T 19.1 µM | NCI-H226 37.2 µM

O=[N+]([O-])c1nccn1CCCNCCCn1ccnc1[N+](=O)[O-]
inactive: OVCAR-4 > 100 µM | EKVX > 100 µM | CAKI-1 > 100 µM | DU-145 > 100 µM | MCF7 > 100 µM | NCI-H460 > 100 µM | A498 > 100 µM | SF-268 > 100 µM | PC-3 > 100 µM | LOX IMVI 74.6 µM | SNB-75 > 100 µM | MDA-N > 100 µM | KM12 > 100 µM | RXF 393 > 100 µM | MDA-MB-231 > 100 µM | NCI/ADR-RES > 100 µM | Hs-578T > 100 µM | NCI-H226 > 100 µM

O=C1CN(c2ccccc2)C(=O)CN1NCNN1CC(=O)N(c2ccccc2)CC1=O
inactive: OVCAR-4 > 100 µM | EKVX > 100 µM | CAKI-1 > 100 µM | DU-145 > 100 µM | MCF7 > 100 µM | NCI-H460 > 100 µM | A498 > 100 µM | SF-268 > 100 µM | PC-3 > 100 µM | SNB-75 > 100 µM | SNB-19 > 100 µM | MDA-N > 100 µM | KM12 > 100 µM | RXF 393 > 100 µM | Hs-578T > 100 µM | HCC 2998 > 100 µM

Cc1c(-c2ccccc2)nn2cc(-c3ccccc3)nnc12
inactive: OVCAR-4 44.5 µM | CAKI-1 45.7 µM | DU-145 30.4 µM | NCI-H460 16.9 µM | A498 56.6 µM | SF-268 28.6 µM | PC-3 19.6 µM | LOX IMVI 19 µM | SNB-75 20.7 µM | SNB-19 40.8 µM | MDA-N 19.7 µM | KM12 29 µM | RXF 393 18.2 µM | MDA-MB-231 18.3 µM | NCI/ADR-RES 39.1 µM | Hs-578T 25.2 µM | NCI-H226 21.2 µM | HCC 2998 15.5 µM

CN(C)Cc1c(O)ccc2c1c1c(n2C)C(=O)c2ccccc2C1=O
inactive: OVCAR-4 4.28 µM | EKVX 13.5 µM | CAKI-1 4.52 µM | DU-145 3.75 µM | MCF7 5.86 µM | NCI-H460 1.85 µM | A498 4.43 µM | SF-268 7.85 µM | PC-3 3.9 µM | LOX IMVI 1.79 µM | SNB-75 12.3 µM | SNB-19 6.19 µM | KM12 3.2 µM | RXF 393 12.4 µM | MDA-MB-231 7.8 µM | NCI/ADR-RES 2.73 µM | Hs-578T 18.7 µM | NCI-H226 11 µM | HCC 2998 3.45 µM

Cc1cc(C)c2nccc(NCCCN(C)C)c2c1[N+](=O)[O-]
inactive: OVCAR-4 13.8 µM | EKVX 64 µM | CAKI-1 32.2 µM | DU-145 44.2 µM | MCF7 30.5 µM | NCI-H460 26.8 µM | A498 59 µM | SF-268 33 µM | PC-3 20.6 µM | LOX IMVI 18.6 µM | SNB-75 24.9 µM | SNB-19 > 100 µM | MDA-N 38.8 µM | KM12 31.4 µM | RXF 393 19.5 µM | MDA-MB-231 51.1 µM | Hs-578T 34 µM | HCC 2998 22.8 µM
